What is called IC50 is the concentration that gives 50% inhibition.

The target of the assay is T1, Recombinant human cathepsin A (Homo sapiens, UniProt P10619).
T1 construct: Recombinant human cathepsin A (residues 29-480, with a C-terminal 10-His tag); 10-His (C); purchased R&D Systems 1049-SE
T1 sequence (P10619 29-326 limits assumed): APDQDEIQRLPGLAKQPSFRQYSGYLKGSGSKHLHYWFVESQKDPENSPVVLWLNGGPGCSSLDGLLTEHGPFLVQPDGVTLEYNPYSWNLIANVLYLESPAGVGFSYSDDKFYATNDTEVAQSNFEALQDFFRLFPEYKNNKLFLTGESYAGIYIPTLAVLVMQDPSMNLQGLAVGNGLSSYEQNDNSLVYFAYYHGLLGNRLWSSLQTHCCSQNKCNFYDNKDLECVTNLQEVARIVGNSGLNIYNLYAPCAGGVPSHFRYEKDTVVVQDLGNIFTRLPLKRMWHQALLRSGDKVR
T1 sequence (P10619 327-480 limits assumed): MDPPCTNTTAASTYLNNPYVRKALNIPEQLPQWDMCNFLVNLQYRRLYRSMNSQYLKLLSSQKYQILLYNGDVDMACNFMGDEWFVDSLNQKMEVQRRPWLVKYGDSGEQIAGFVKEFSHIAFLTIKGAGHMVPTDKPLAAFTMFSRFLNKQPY
Description: Cathepsin A inhibitory activity. The following applies: activated recombinant human cathepsin A 833 ng/ml, Bodipy FL-labeled bradykinin substrate 2 μM, pH 5.5, room temperature. The format is biochemical. The procedure, abridged:
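Enzyme (residues 29-480, C-terminal His tag) pre-activated by cathepsin L at 37° C, then quenched with E-64. Compound preincubated 15 min at room temperature in 25 mM MES pH 5.5 with 5 mM DTT, then 2 μM Bodipy FL-bradykinin added for 15 min at 833 ng/ml enzyme. Product/substrate separated by microfluidic capillary electrophoresis; IC50 from multi-concentration inhibition.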
As to `Cc1ccccc1[C@H](CC(=O)O)NC(=O)c1csc(-c2ccccc2)n1` [Example 63, (S)-3-[(2-Phenyl-thiazole-4-carbonyl)-amino]-3-o-tolyl-propionic acid], the IC50 was found to be 61 nM.

For `Cc1ccccc1-c1nc(C(=O)NCC(C(=O)O)c2ccccc2)cs1` (stereo not shown) [Example 114, 2-Phenyl-3-[(2-o-tolyl-thiazole-4-carbonyl)-amino]-propionic acid], the IC50 came out at 7040 nM. For `O=C(O)[C@@H]1CN(C(=O)c2nc(-c3ccc(C(F)(F)F)cc3)cs2)C[C@H]1c1ccccc1` [Example 103, (3S,4R)-4-Phenyl-1-[4-(4-trifluoromethyl-phenyl)-thiazole-2-carbonyl]-pyrrolidine-3-carboxylic acid], the IC50 is > 10000 nM. For `O=C(O)CC(NC(=O)c1csc(-c2cccc(Cl)c2)n1)C1CCCCC1` (stereo not shown) [Example 124, 3-{[2-(3-Chloro-phenyl)-thiazole-4-carbonyl]-amino}-3-cyclohexyl-propionic acid], the concentration for half-maximal inhibition (IC50) was found to be 3420 nM. For `O=C(O)C[C@H](NC(=O)c1csc(-c2cccc(Cl)c2)n1)c1cccc(F)c1` [Example 94, (S)-3-{[2-(3-Chloro-phenyl)-thiazole-4-carbonyl]-amino}-3-(3-fluoro-phenyl)-propionic acid], the IC50 was found to be 3730 nM. The same measure for `O=C(O)C[C@H](NC(=O)c1csc(-c2cccc(Cl)c2)n1)c1ccccc1F` [Example 92, (S)-3-{[2-(3-Chloro-phenyl)-thiazole-4-carbonyl]-amino}-3-(2-fluoro-phenyl)-propionic acid]: 1310 nM. The same measure for `O=C(O)C[C@H](NC(=O)c1csc(-c2cccc(Cl)c2)n1)c1cccc(Cl)c1` [Example 44, (S)-3-(3-Chloro-phenyl)-3-{[2-(3-chloro-phenyl)-thiazole-4-carbonyl]-amino}-propionic acid]: 2980 nM; for `O=C(O)C[C@H](NC(=O)c1csc(-c2cccc(Cl)c2Cl)n1)c1cccc(Cl)c1` [Example 41, (S)-3-(3-Chloro-phenyl)-3-{[2-(2,3-dichloro-phenyl)-thiazole-4-carbonyl]-amino}-propionic acid]: 583 nM. As to `O=C(O)C[C@H](NC(=O)c1csc(-c2ccc(C(F)(F)F)cc2)n1)c1cccc(F)c1` [Example 50, (S)-3-(3-Fluoro-phenyl)-3-{[2-(4-trifluoromethyl-phenyl)-thiazole-4-carbonyl]-amino}-propionic acid], the IC50 is > 10000 nM. As for `O=C(O)C[C@H](NC(=O)c1csc(-c2ccc(Cl)cc2)n1)c1ccccc1Cl` [Example 32, (S)-3-(2-Chloro-phenyl)-3-{[2-(4-chloro-phenyl)-thiazole-4-carbonyl]-amino}-propionic acid], the IC50 turned out to be 1400 nM.

For the molecule `O=C(O)C[C@H](NC(=O)c1nc(-c2ccccc2)cs1)c1ccccc1F` [Example 53, (S)-3-(2-Fluoro-phenyl)-3-[(4-phenyl-thiazole-2-carbonyl)-amino]-propionic acid], the half-inhibitory concentration (IC50) came out at 1750 nM.

Consider `Cc1ccccc1[C@H](CC(=O)O)NC(=O)c1csc(-c2cccc(Cl)c2)n1` [Example 98, (S)-3-{[2-(3-Chloro-phenyl)-thiazole-4-carbonyl]-amino}-3-o-tolyl-propionic acid], for which the IC50 was determined as 660 nM. As for `COc1cccc([C@H](CC(=O)O)NC(=O)c2csc(-c3ccccc3C)n2)c1OC` [Example 17, (S)-3-(2,3-Dimethoxy-phenyl)-3-[(2-o-tolyl-thiazole-4-carbonyl)-amino]-propionic acid], the IC50 stood at 242 nM. For `O=C(O)C[C@H](NC(=O)c1csc(-c2ccc(Cl)cc2)n1)c1ccccc1` [Example 110, (S)-3-{[2-(4-Chloro-phenyl)-thiazole-4-carbonyl]-amino}-3-phenyl-propionic acid], the IC50 came to 3880 nM.

Take `O=C(O)C[C@H](NC(=O)c1csc(-c2ccccc2)n1)c1ccccc1C(F)(F)F` [Example 62, (S)-3-[(2-Phenyl-thiazole-4-carbonyl)-amino]-3-(2-trifluoromethyl-phenyl)-propionic acid]: the IC50 came out at 2630 nM.

Turning to `Cc1ccccc1-c1nc(C(=O)N[C@@H](CC(=O)O)c2ccc(F)cc2)cs1` [Example 54, (S)-3-(4-Fluoro-phenyl)-3-[(2-o-tolyl-thiazole-4-carbonyl)-amino]-propionic acid], the half-inhibitory concentration (IC50) turned out to be 303 nM.

The record behind these values is patent US9174952B2, “Substituted 3-thiazoloamino-propionic acid derivatives and their use as pharmaceuticals” (SANOFI, priority 2011, dated 2015).
